Laboratory results from patent US20230292776A1, “GAS PHASE TREATMENT OF PRODUCE” (priority 2022, published 2023).

Legend:
[1] = tested on: avocados; assay: Durometer shore (firmness, ripening) of treated avocados; format: in vivo, avocado; conditions: Example 21; Cg-infected avocados; AITC 125 μL 30 minutes; prochloraz 0.1 g/L dip; after 5 days
Experimental: (§1) Example 9. The antifungal activity of a range of AITC and carvacrol vapor exposure times was tested against Cg in avocados. To measure the effect of the various treatments on ripening, durometer shore was taken after 7 days of incubation at ambient temperature and high humidity. All samples were wounded by removing the stem and infected by dispensing 1000 Cg spores suspended in 10 μL of water in the wound. The test groups consisted of avocados that were: infected and left untreated on the benchtop; infected and left untreated under a fume hood; exposed to the vapor of 3 mL of AITC in a Petri dish for 24 hours, 48 hours, and 72 hours; and exposed to the vapor of 3 mL of carvacrol in a Petri dish for 72 hours. FIG. 11 quantifies the infection results. […] All exposure times to AITC vapor reduced the incidence of Cg mold compared to the untreated samples. A 24 hour AITC exposure reduced the incidence of Cg mold by 90%. A 48 hour AITC exposure reduced the incidence of Cg mold by 97%. A 72 hour AITC exposure reduced the incidence of Cg mold by 83%.
(§2) Example 10. The antifungal activity of a range of AITC vapor exposure times were tested against Cg in avocados. To measure the effect of the various treatments on ripening, durometer shore was taken after 6 days of incubation at ambient temperature and high humidity. All samples were wounded by removing the stem and infected by dispensing 1000 Cg spores suspended in 10 μL of water in each wound. The test groups consisted of avocados that were: infected and left untreated on the benchtop; infected and left untreated in a fume hood; exposed to the vapor of 3 mL of AITC in a Petri dish for 24 hours, 48 hours, and 72 hours. FIG. 13 quantifies the infection results. […] All exposure times to AITC vapor reduced the incidence of Cg mold compared to the untreated samples.
Example 21. The antifungal activity of avocados exposed to AITC vapor and prochloraz was tested against Cg in avocados. To measure the effect of the various treatments on ripening, durometer shore was taken after 5 days of incubation at ambient temperature (about 20° C. to about 25° C.) and high humidity (about 88% relative humidity to about 93% relative humidity). All samples were wounded by removing the stem and infected by dispensing 1000 Cg spores suspended in 10 μL of water in the wound. Exposure to vapor was done by placing the avocados in an airtight container, dispensing AITC onto Whatman filter paper discs, suspending the discs in front of a battery-powered fan, closing the container and incubating the avocados for 30 minutes. After vapor exposure, the avocados were left at ambient temperature, high humidity, and assessed for Cg mold on day 5. Treatment groups consisted of avocados that were: exposed for 30 minutes to the vapor of 125 μL of AITC disposed on a filter paper disc; dipped in a solution of 0.1 g/L of prochloraz and placed to dry on a rack in front of a fan for 30 min; infected and left untreated; and uninfected and untreated. […] To prepare the 0.1 g/L of prochloraz, 10 mg of prochloraz was mixed with 10 mL of ethanol and 90 mL of water. […] A 24 hour AITC exposure reduced the incidence of Cg mold by 90%. […] The mean shore value for the untreated avocados was 28.8 (standard deviation (SD)=10.8). The mean shore value for the infected avocados was 47.3 (SD=11.8). The mean shore value of the positive control, prochloraz treated avocados was 44.3 (SD=14.7). The mean shore value of the AITC treated avocados was 61.1 (SD=10.5).
Durometer Shore Measurement: A Fruit Hardness Tester— HPE III Fff w/Sphere Ø 5.0 mm Test Anvil is used for the measurements. The Operating Procedure is as follows: • 1) At room temperature and 1 atm pressure, switch on the measuring device and press the hull or sleeve against the specimen so that the contact surface of the pressure plate rests on the fruit. […]

[2] = tested on: Penicillium digitatum (Pd); assay: Antifungal activity of vapor against Penicillium digitatum (Pd) in wounded, infected mandarins; format: in vivo; conditions: after 6 days
[3] = tested on: Colletotrichum gloeosporioides (Cg); assay: Antifungal activity against Colletotrichum gloeosporioides (Cg) in wounded, infected avocados; format: in vivo; conditions: Example 9; avocados; vapor of 3 mL, 72 hour exposure
Experimental: Example 7. The antifungal activity of AITC and DADS vapor against Colletotrichum gloeosporioides (Cg) was tested in avocados. All test pieces were wounded by removing the stem and infected by dispensing 1000 Cg spores suspended in 10 μL of water into the wound. The test groups consisted of avocados that were: untreated and uninfected; untreated and infected; treated by dipping in a solution of 0.1 g/L of prochloraz; exposed to the vapor of 3 mL of AITC disposed in a Petri dish; and exposed to the vapor of 3 mL of DADS disposed in a Petri dish. FIG. 9 quantifies the infection results. AITC vapor reduced the incidence of Cg mold by 97% compared to the untreated test group and 70% compared to the prochloraz treated test group. DADS vapor reduced the incidence of Cg mold by 60% compared to the untreated test group.
Example 8. The antifungal activity of a range of DADS vapor exposure times was tested against Cg in avocados. All test pieces were wounded by removing the stem and infected by dispensing 1000 Cg spores suspended in 10 μL of water into the wound. The test groups consisted of avocados that were: infected and untreated; and exposed to the vapor of 3 mL of DADS in a Petri dish for 24 hours, 48 hours, and 72 hours. FIG. 10 quantifies the infection results. Test group exposed to DADS vapor at all exposure times reduced the incidence of Cg mold compared to the untreated test group. A 24 hour DADS exposure reduced the incidence of Cg mold by 8%. A 48 hour DADS exposure reduced the incidence of Cg mold by 25%. A 72 hour DADS exposure reduced the incidence of Cg mold by 57%.
as §1, §2
Example 21. The antifungal activity of avocados exposed to AITC vapor and prochloraz was tested against Cg in avocados. To measure the effect of the various treatments on ripening, durometer shore was taken after 5 days of incubation at ambient temperature (about 20° C. to about 25° C.) and high humidity (about 88% relative humidity to about 93% relative humidity). All samples were wounded by removing the stem and infected by dispensing 1000 Cg spores suspended in 10 μL of water in the wound. […]

SMILES: CCCN(CCOc1c(Cl)cc(Cl)cc1Cl)C(=O)n1ccnc1 [prochloraz, reference compound]
- mean shore value [1]: 44.3 (SD=14.7)

SMILES: C=CCc1ccc(O)c(OC)c1 [eugenol]
- performance against Pd versus the untreated samples ([2]; Example 19, mandarins, 62.5 μL AITC and/or 125 μL of all other compounds, 30 minutes): performed better than the untreated samples

SMILES: C=CCOC(Cn1ccnc1)c1ccc(Cl)cc1Cl (stereo not shown) [imazalil, reference compound]
- infected mandarins ([2]; Example 6, treated with 1 g/L, fruit of poor quality with latent infection): 83.3%

SMILES: Cc1ccc(C(C)C)cc1O [carvacrol]
- reduction of the incidence of Cg mold [3]: did not reduce the incidence of Cg mold
